Assay results: patent US11304946B2, “2-hetarylpyrimidine-4-carboxamides as aryl hydrocarbon receptor antagonists” (Bayer Aktiengesellschaft, priority 2017, dated 2022)

Assays:
Mouse AhR = target: T1, Mouse AhR (Mus musculus, UniProt P30561); test: Transactivation assay in mouse cell line (in vitro assay 2: antagonism); format: cell-based; details: Hepa 1c1c7 cells, AHR inducible (DRE) firefly luciferase reporter, 200 μM kynurenic acid, 20 hours
T1 sequence (P30561 1-848): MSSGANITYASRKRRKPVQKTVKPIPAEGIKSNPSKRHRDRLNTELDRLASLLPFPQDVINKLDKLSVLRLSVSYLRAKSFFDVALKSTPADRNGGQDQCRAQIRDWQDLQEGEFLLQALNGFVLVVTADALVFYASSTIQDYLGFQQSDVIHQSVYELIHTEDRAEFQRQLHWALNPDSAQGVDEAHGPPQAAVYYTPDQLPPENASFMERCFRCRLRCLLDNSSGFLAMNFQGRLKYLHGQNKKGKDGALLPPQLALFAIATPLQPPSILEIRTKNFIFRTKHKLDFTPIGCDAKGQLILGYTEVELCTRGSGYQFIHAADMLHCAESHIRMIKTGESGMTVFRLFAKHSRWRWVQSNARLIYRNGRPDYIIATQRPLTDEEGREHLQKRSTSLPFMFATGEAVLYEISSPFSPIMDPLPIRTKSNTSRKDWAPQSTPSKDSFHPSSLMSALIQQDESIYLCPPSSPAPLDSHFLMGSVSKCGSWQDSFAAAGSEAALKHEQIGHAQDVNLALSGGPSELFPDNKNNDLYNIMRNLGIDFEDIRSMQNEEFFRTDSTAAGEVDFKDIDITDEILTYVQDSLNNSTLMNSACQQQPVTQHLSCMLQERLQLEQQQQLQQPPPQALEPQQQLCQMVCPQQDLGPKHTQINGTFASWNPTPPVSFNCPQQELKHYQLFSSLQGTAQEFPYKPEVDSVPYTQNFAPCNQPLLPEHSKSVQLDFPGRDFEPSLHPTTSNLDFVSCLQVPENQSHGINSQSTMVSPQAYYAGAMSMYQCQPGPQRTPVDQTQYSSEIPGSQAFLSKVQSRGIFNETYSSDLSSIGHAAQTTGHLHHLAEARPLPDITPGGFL
Procedure: Transactivation Assay in Mouse Cell Line (In Vitro Assay 2)
(§1) Transactivation assay was carried out in Hepa 1c1c7 cells (ATCC #CRL-2026) endogenously expressing AHR. In addition the cells were stably transfected with an AHR inducible firefly luciferase reporter gene construct that carried AHR-binding sites (DRE) in its promoter. Kynurenic acid is an endogenous AHR activating ligand and was used to prestimulate test cells prior to testing the antagonistic properties of compounds.
In Vitro Assay 2: Antagonism in Mouse Cell Line
Firefly luciferase activity was determined by the SteadyGlo Luciferase Assay System (Promega, #E2550).

Human AhR = target: T2, Human AhR (Homo sapiens, UniProt P35869); test: Transactivation assay in human cell line (in vitro assay 1: antagonism); format: cell-based; details: U87 glioblastoma cells, AHR inducible (DRE) firefly luciferase reporter, 150 μM kynurenic acid, 20 hours
T2 construct: host or cells: U87 glioblastoma cells, stably transfected with DRE-driven firefly luciferase and constitutive renilla reporter constructs
T2 sequence (P35869 11-848): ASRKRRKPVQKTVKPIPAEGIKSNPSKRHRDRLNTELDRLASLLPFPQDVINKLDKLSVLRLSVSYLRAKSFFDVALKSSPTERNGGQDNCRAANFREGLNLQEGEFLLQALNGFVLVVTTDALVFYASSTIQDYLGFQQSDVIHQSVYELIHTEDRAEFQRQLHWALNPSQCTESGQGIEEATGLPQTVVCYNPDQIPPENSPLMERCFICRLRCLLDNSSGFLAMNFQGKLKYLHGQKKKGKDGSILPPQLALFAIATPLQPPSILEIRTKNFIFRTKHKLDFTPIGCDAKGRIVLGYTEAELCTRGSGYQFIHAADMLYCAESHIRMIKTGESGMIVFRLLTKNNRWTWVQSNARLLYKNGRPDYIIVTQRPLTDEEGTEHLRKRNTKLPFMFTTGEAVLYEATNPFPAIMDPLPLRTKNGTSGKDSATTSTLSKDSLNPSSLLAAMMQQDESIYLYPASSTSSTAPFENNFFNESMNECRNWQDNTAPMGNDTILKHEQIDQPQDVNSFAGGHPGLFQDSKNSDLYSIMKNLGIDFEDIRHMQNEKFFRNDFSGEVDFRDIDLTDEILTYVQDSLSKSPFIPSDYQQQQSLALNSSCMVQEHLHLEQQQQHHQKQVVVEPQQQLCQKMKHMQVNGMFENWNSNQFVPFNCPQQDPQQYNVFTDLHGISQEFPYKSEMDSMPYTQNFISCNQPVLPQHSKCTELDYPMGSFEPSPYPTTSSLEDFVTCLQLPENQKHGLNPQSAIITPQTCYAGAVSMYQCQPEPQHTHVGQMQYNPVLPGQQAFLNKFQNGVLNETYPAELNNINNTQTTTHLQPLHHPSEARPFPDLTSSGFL
Procedure: Transactivation Assay in Human Cell Line (In Vitro Assay 1)
as §1, with “U87 glioblastoma” for “Hepa 1c1c7”, “(ATCC)” for “(ATCC #CRL-2026)”, “its promoter and a renilla reporter gene construct with constitutively active” for “its”
In Vitro Assay 1: Antagonism in Human Cell Line
Firefly luciferase and Renilla activity was determined by the DualGlo Luciferase Assay System (Promega, #2920). Renilla activity was used to assess toxic effects of compounds.

SMILES | IC50 (Mouse AhR) [nM] | IC50 (Human AhR) [nM]
Cn1cc(-c2nc(C(=O)NC(CO)(CO)C(F)(F)F)cc(-c3ccc(OC(F)(F)F)cc3)n2)cn1 [Example 89, 2-(1-methyl-1H-pyrazol-4-yl)-N-[1,1,1-trifluoro-3-hydroxy-2-(hydroxymethyl)propan-2-yl]-6-[4-(trifluoromethoxy)phenyl]pyrimidine-4-carboxamide] | 4.34 | 7.95
Cn1cc(-c2nc(C(=O)N[C@H]3CCCC[C@@H]3O)cc(-c3ccc(OC(F)(F)F)cc3)n2)cn1 (relative stereo) [Example 92, N-[(trans)-2-hydroxycyclohexyl]-2-(1-methyl-1H-pyrazol-4-yl)-6-[4-(trifluoromethoxy)phenyl]pyrimidine-4-carboxamide] | 5.79 | 4.27
CC(C)(O)CNC(=O)c1cc(-c2ccc(OC(F)(F)F)cc2)nc(-c2cccnc2)n1 [Example 3, N-(2-hydroxy-2-methylpropyl)-2-(pyridin-3-yl)-6-[4-(trifluoromethoxy)phenyl]pyrimidine-4-carboxamide] | 7.81 | 3.86
Cc1[nH]ncc1-c1nc(C(=O)NCC(C)(C)O)cc(-c2ccc(OC(F)(F)F)cc2)n1 [Example 24, N-(2-hydroxy-2-methylpropyl)-2-(3-methyl-1H-pyrazol-4-yl)-6-[4-(trifluoromethoxy)phenyl]pyrimidine-4-carboxamide] | 359 | 208
Cc1noc(C)c1-c1nc(C(=O)N[C@@H](C)CO)cc(-c2ccc(OC(F)(F)F)cc2)n1 [Example 35, 2-(3,5-dimethyl-1,2-oxazol-4-yl)-N-[(2S)-1-hydroxypropan-2-yl]-6-[4-(trifluoromethoxy)phenyl]pyrimidine-4-carboxamide] | 5310 | 1030
Cn1cc(-c2nc(C(=O)N[C@@H]3CCC[C@H]3O)cc(-c3ccc(OC(F)(F)F)cc3)n2)cn1 (stereo in doubt) [Example 96, N-[(trans)-2-hydroxycyclopentyl]-2-(1-methyl-1H-pyrazol-4-yl)-6-[4-(trifluoromethoxy)phenyl]pyrimidine-4-carboxamide] | 56.1 | 53.2
C[C@@H](CO)NC(=O)c1cc(-c2ccc(OC(F)(F)F)cc2)nc(-c2ccc(Cl)s2)n1 [Example 32, 2-(5-chlorothiophen-2-yl)-N-[(2S)-1-hydroxypropan-2-yl]-6-[4-(trifluoromethoxy)phenyl]pyrimidine-4-carboxamide] | 38.8 | 46.2
C[C@@H](CO)NC(=O)c1cc(-c2ccc(C(F)(F)F)cc2)nc(-c2cccnc2)n1 [Example 117, N-[(2S)-1-hydroxypropan-2-yl]-2-(pyridin-3-yl)-6-[4-(trifluoromethyl)phenyl]pyrimidine-4-carboxamide] | 1.33 | 1.26
C[C@@H](CO)NC(=O)c1cc(-c2ccc(OC(F)(F)F)cc2)nc(-c2cc[nH]n2)n1 [Example 37, N-[(2S)-1-hydroxypropan-2-yl]-2-(1H-pyrazol-3-yl)-6-[4-(trifluoromethoxy)phenyl]pyrimidine-4-carboxamide] | 93 | 71.7
COc1ccncc1-c1nc(C(=O)NCC(C)(C)O)cc(-c2ccc(Cl)cc2)n1 [Example 61, 6-(4-chlorophenyl)-N-(2-hydroxy-2-methylpropyl)-2-(4-methoxypyridin-3-yl)pyrimidine-4-carboxamide] | 4.8 | –
CC(C)(O)CNC(=O)c1cc(-c2ccc(C(F)F)cc2)nc(-c2cccnc2)n1 [Example 120, 6-[4-(difluoromethyl)phenyl]-N-(2-hydroxy-2-methylpropyl)-2-(pyridin-3-yl)pyrimidine-4-carboxamide] | 10.2 | –
CC(C)(O)CNC(=O)c1cc(-c2ccc(C(F)(F)F)cc2)nc(-c2cccnc2)n1 [Example 7, N-(2-hydroxy-2-methylpropyl)-2-(pyridin-3-yl)-6-[4-(trifluoromethyl)phenyl]pyrimidine-4-carboxamide] | 12.7 | –
C[C@@H](CO)NC(=O)c1cc(-c2ccc(Cl)cc2)nc(-c2ccc(C#N)nc2)n1 [Example 78, 6-(4-chlorophenyl)-2-(6-cyanopyridin-3-yl)-N-[(2S)-1-hydroxypropan-2-yl]pyrimidine-4-carboxamide] | – | 741
CC(C)(O)CNC(=O)c1cc(-c2ccc(Cl)cc2)nc(-c2cc[nH]n2)n1 [Example 58, 6-(4-chlorophenyl)-N-(2-hydroxy-2-methylpropyl)-2-(1H-pyrazol-3-yl)pyrimidine-4-carboxamide] | – | 328

The next lines start with the values.

IC50 (Mouse AhR) [nM] | IC50 (Human AhR) [nM] | SMILES
3.26 | 6.86 | C[C@H](NC(=O)c1cc(-c2ccc(OC(F)(F)F)cc2)nc(-c2cnn(C)c2)n1)C(C)(C)O [Example 102, N-[(2S)-3-hydroxy-3-methylbutan-2-yl]-2-(1-methyl-1H-pyrazol-4-yl)-6-[4-(trifluoromethoxy)phenyl]pyrimidine-4-carboxamide]
10000 | 5220 | CC(C)Cn1cc(-c2nc(C(=O)N[C@@H](C)CO)cc(-c3ccc(OC(F)(F)F)cc3)n2)cn1 [Example 36, N-[(2S)-1-hydroxypropan-2-yl]-2-[1-(2-methylpropyl)-1H-pyrazol-4-yl]-6-[4-(trifluoromethoxy)phenyl]pyrimidine-4-carboxamide]
24.3 | 5.44 | Cn1cc(-c2nc(C(=O)NC(CO)C3CCC3)cc(-c3ccc(OC(F)(F)F)cc3)n2)cn1 (stereo not shown) [Example 94, N-(1-cyclobutyl-2-hydroxyethyl)-2-(1-methyl-1H-pyrazol-4-yl)-6-[4-(trifluoromethoxy)phenyl]pyrimidine-4-carboxamide]
1.97 | – | CC(C)[C@@H](CO)NC(=O)c1cc(-c2ccc(OC(F)(F)F)cc2)nc(-c2cnn(C)c2)n1 [Example 116, N-[(2S)-1-hydroxy-3-methylbutan-2-yl]-2-(1-methyl-1H-pyrazol-4-yl)-6-[4-(trifluoromethoxy)phenyl]pyrimidine-4-carboxamide]
55.8 | 97.6 | C[C@@H](CO)NC(=O)c1cc(-c2ccc(OC(F)(F)F)cc2)nc(-c2cn[nH]c2)n1 [Example 41, N-[(2S)-1-hydroxypropan-2-yl]-2-(1H-pyrazol-4-yl)-6-[4-(trifluoromethoxy)phenyl]pyrimidine-4-carboxamide]
24 | 29.6 | C[C@@H](CO)NC(=O)c1cc(-c2ccc(OC(F)(F)F)cc2)nc(-c2ccnn2C)n1 [Example 34, N-[(2S)-1-hydroxypropan-2-yl]-2-(1-methyl-1H-pyrazol-5-yl)-6-[4-(trifluoromethoxy)phenyl]pyrimidine-4-carboxamide]
